Test results as given in PubChem BioAssay (NCI).
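Exposure lasted 48 hours, with cells grown in 96-well plates and compounds tested at five concentrations. Here, GI50 denotes the concentration required for 50% inhibition of growth. TGI: total growth inhibition.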

Legend:
Experiment in all cases: growth of human tumour cells (NCI), 48 h
CAKI-1 renal = tested on: CAKI-1 renal
EKVX NSCLC = tested on: EKVX NSCLC
HCT-15 colon = tested on: HCT-15 colon
HOP-62 NSCLC = tested on: HOP-62 NSCLC
M14 melanoma = tested on: M14 melanoma
MDA-MB-231 breast = tested on: MDA-MB-231 breast
NCI-H226 lung = tested on: NCI-H226 lung
OVCAR-8 ovarian = tested on: OVCAR-8 ovarian
PC-3 prostate = tested on: PC-3 prostate
SK-OV-3 ovarian = tested on: SK-OV-3 ovarian
A549 NSCLC = tested on: A549 NSCLC

Row | Structure (SMILES) | TGI (CAKI-1 renal) | TGI (EKVX NSCLC) | TGI (HCT-15 colon) | TGI (HOP-62 NSCLC) | TGI (M14 melanoma) | TGI (MDA-MB-231 breast) | TGI (NCI-H226 lung) | TGI (OVCAR-8 ovarian) | TGI (PC-3 prostate) | TGI (SK-OV-3 ovarian) | TGI (A549 NSCLC) | GI50 (EKVX NSCLC) | GI50 (M14 melanoma) | GI50 (MDA-MB-231 breast) | GI50 (NCI-H226 lung) | GI50 (PC-3 prostate) | GI50 (SK-OV-3 ovarian)
1 | N#C/C(=C/C=C/c1ccco1)C(N)=O | > 10 µM | > 10 µM | > 10 µM | > 10 µM | > 10 µM | > 10 µM | > 10 µM | > 10 µM | > 10 µM | > 10 µM |  |  |  |  |  |  | 
2 | Cc1cc(-n2nnc(C(=O)O)c2-c2ccccc2)c2ccc(Cl)cc2n1 | > 100 µM | > 100 µM | > 100 µM |  | > 100 µM | > 100 µM | > 100 µM | > 100 µM | > 100 µM | > 100 µM | > 100 µM |  |  |  |  |  | 
3 | CN(Cc1cnc2nc(N)nc(N)c2n1)c1ccc(C(=O)NC23CC4CC(CC(C4)C2)C3)cc1 | 27.8 µM | 32.5 µM | 16.6 µM | 28.2 µM | 18.4 µM | 39.5 µM | 27.3 µM | 19.9 µM | 19 µM | 31.9 µM |  |  |  |  |  |  | 
4 | COc1ccccc1-n1c(=O)n(C)c(=O)n1C(C)(C)C | > 100 µM | > 100 µM | > 100 µM |  | > 100 µM | > 100 µM | > 100 µM | > 100 µM | > 100 µM | > 100 µM | > 100 µM |  |  |  |  |  | 
5 | Cc1ccc(S(=O)(=O)NC(=O)NC(Cc2ccc(O)cc2)C(=O)O)cc1 (configuration not stated) |  |  | > 100 µM | > 100 µM | > 100 µM | > 100 µM |  | > 100 µM | > 100 µM | > 100 µM | > 100 µM |  |  |  |  |  | 
6 | CC1CC/C(=C\c2ccc(F)cc2)C2=C1C(c1ccc(F)cc1)N1C(=O)CSC1=N2 (configuration not stated) | > 100 µM | > 100 µM | > 100 µM |  | > 100 µM | > 100 µM | > 100 µM | > 100 µM | > 100 µM | > 100 µM |  |  |  |  |  |  | 
7 | Cc1c(CNc2ccc(C(=O)NC(CCCNC(=O)c3ccccc3C(=O)O)C(=O)O)cc2)cnc2nc(N)nc(N)c12 (configuration not stated) |  | > 100 µM | > 100 µM |  |  | > 100 µM | 2.91 µM |  | > 100 µM | > 100 µM | > 100 µM | 0.0834 µM | 0.0385 µM | > 100 µM | 0.00248 µM | < 0.0001 µM | > 100 µM
8 | C#CC(O)(c1nc2ccccc2s1)c1nc2ccccc2s1 | > 100 µM | 57.5 µM | 60.6 µM | 85.1 µM | 32.8 µM | 39.7 µM |  | 51.5 µM | 64.7 µM |  | > 100 µM |  |  |  |  |  | 
9 | O=C(COc1ccc(OCC(=O)N2C(=O)CC(=O)N(c3ccc(Cl)cc3)C2=S)cc1)N1C(=O)CC(=O)N(c2ccc(Cl)cc2)C1=S |  | > 100 µM | > 100 µM |  | > 100 µM | > 100 µM | 85.7 µM |  | > 100 µM | > 100 µM | > 100 µM |  |  |  |  |  | 
10 | O=c1[nH]nc(-c2ccccc2)n1/N=C/c1ccc([N+](=O)[O-])o1 | 28.2 µM | 24 µM | 17.3 µM | 19.7 µM | 11.2 µM | 19.5 µM | 37.5 µM |  | > 30.3 µM | 65.6 µM | 21.9 µM |  |  |  |  |  | 
11 | C#CC[C@@]12CC(=O)C[C@@H]1CCC1(C2)OCCO1 (tested in a mixture with another compound) |  | > 100 µM | > 100 µM | > 100 µM |  |  | > 100 µM | > 100 µM |  | > 100 µM | > 100 µM |  |  |  |  |  | 
12 | C(/C=N/NC1=NCCCCN1)=N\NC1=NCCCCN1 | > 100 µM | > 100 µM |  | > 100 µM | > 100 µM | > 100 µM | > 100 µM | > 100 µM | > 100 µM | > 100 µM | > 100 µM |  |  |  |  |  | 
13 | ClC(Cl)(Cl)C1CCOC1n1nnc2ccccc21 (configuration not stated) | > 100 µM | > 100 µM |  | > 100 µM | > 100 µM | > 100 µM | > 100 µM | > 100 µM | > 100 µM | > 100 µM | > 100 µM |  |  |  |  |  | 
14 | Fc1cccc(F)c1C1SCc2nc3cc(Cl)c(Cl)cc3n21 (configuration not stated) | > 100 µM | > 100 µM | > 100 µM | > 100 µM | > 100 µM | > 100 µM |  | > 100 µM | > 100 µM | > 100 µM | > 100 µM |  |  |  |  |  | 
15 | O=C1c2cc(Cc3ccccc3)c(=O)c(Cc3ccccc3)cc2C(=O)c2cc(Cc3ccccc3)c(=O)c(Cc3ccccc3)cc21 | > 100 µM | > 100 µM | > 100 µM | > 100 µM | > 100 µM | > 100 µM | > 100 µM | > 100 µM | > 100 µM |  | > 100 µM |  |  |  |  |  | 
16 | COc1ccc(C2C3=C(N=C4SC(C(C)=O)=C(C)N42)c2ccccc2CC3)cc1 (configuration not stated) |  |  | > 100 µM | > 100 µM | > 100 µM | > 100 µM | > 100 µM | > 100 µM | > 100 µM | > 100 µM | > 100 µM |  |  |  |  |  | 
17 | O=[N+]([O-])c1ccc(NN=C2CN3CCN(C2)c2ccccc23)c([N+](=O)[O-])c1 | > 100 µM | > 100 µM | > 100 µM | > 100 µM | > 100 µM | > 100 µM |  | > 100 µM | > 100 µM | > 100 µM | > 100 µM |  |  |  |  |  | 
18 | Cc1cc2[nH]c3c(C#N)c(-c4ccccc4)c(N=Nc4ccc(F)cc4)c(=O)n3c2cc1C | > 100 µM | > 100 µM | > 100 µM | > 100 µM | > 100 µM | > 100 µM | > 100 µM |  | > 100 µM | > 100 µM | > 100 µM |  |  |  |  |  | 
19 | O=C1NC(=O)c2ccccc2/C1=C/c1ccc2c(c1)OCO2 | 98.4 µM | > 100 µM | 31.8 µM | 28.7 µM | 76.5 µM | 47.5 µM | > 100 µM | 95.1 µM |  | > 100 µM | > 100 µM |  |  |  |  |  | 
20 | CC(C)(C)OC(=O)NC12C3C4C1C1C2C3C41NC(=O)OC(C)(C)C (configuration not stated) | > 100 µM | > 100 µM | > 100 µM | > 100 µM | > 100 µM | 92.1 µM |  | > 100 µM | > 100 µM |  | > 100 µM |  |  |  |  |  | 
